Assay [1] concerns the target Mu-type opioid receptor (Rattus norvegicus, UniProt P33535). As to the kind of experiment: Inhibition of binding of [3H]DAMGO to opioid receptor mu 1 from rat brain membrane.
Assay [2] deals with Delta-type opioid receptor (Rattus norvegicus, UniProt P33533). As to the kind of experiment: Inhibition of binding of [3H]-DPDPE to opioid receptor delta 1 from rat brain membrane.

We go through 30 compounds from ChEMBL document CHEMBL1134125, “Piperazinyl benzamidines: synthesis and affinity for the delta opioid receptor” (Bioorg Med Chem Lett, 2001).

Chain of Mu-type opioid receptor (P33535 whole entry): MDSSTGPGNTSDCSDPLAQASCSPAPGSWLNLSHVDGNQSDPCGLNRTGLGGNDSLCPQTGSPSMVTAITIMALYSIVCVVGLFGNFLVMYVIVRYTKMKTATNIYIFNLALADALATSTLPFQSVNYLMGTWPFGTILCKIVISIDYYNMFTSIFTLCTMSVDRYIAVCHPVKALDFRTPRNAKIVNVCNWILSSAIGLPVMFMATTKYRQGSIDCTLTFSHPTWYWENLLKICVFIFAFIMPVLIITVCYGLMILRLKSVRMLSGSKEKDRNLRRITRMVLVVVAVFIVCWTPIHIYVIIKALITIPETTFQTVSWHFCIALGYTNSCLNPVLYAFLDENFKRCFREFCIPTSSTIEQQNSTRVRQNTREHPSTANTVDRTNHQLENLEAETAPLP
Chain of Delta-type opioid receptor (P33533 whole entry): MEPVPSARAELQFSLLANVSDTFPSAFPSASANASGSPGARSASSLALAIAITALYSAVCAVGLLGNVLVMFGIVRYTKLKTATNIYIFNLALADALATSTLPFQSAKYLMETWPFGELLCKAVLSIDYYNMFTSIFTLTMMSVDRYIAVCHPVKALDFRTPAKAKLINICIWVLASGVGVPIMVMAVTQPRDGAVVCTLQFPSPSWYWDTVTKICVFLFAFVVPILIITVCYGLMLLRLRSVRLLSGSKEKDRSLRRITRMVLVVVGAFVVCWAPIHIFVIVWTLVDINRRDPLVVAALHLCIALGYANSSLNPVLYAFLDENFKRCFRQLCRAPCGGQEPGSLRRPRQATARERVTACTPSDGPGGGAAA

Consider `COC(=O)c1ccc(/C(=N/c2ccccc2Cl)N2CCCN(CCc3ccccc3)CC2)cc1`, for which the values for the Ki in assay [1] and in assay [2] were 197 nM and 101 nM, respectively. For `CCN(CC)C(=O)c1ccc(/C(=N/c2ccccc2Cl)N2CCN(Cc3ccccc3)CC2)cc1` the same measures were more than 10000 nM and 11.8 nM. For the compound `CCN(CC)C(=O)c1ccc(/C(=N/c2ccccc2Cl)N2CCN(CCOC)CC2)cc1`, the Ki in assay [1] was more than 10000 nM; in assay [2], 53.5 nM. For `C=CCN1CCN(/C(=N\c2ccccc2)c2ccc(C(=O)N(CC)CC)cc2)CC1`, the Ki in assay [1] was 1000 nM; in assay [2], 859 nM. As for `CCN1CCN(/C(=N\c2cccc(Br)c2)c2ccc(C(=O)N(CC)CC)cc2)CC1`, the values for the Ki in assay [1] and in assay [2] were more than 10000 nM and 57.6 nM, respectively.

For the compound `CCN(CC)C(=O)c1ccc(/C(=N/c2ccccc2C(F)(F)F)N2CCN(Cc3ccccc3)CC2)cc1`, the Ki in assay [1] is 1200 nM; in assay [2], 1.22 nM.

For the compound `CCN1CCN(/C(=N\c2ccccc2Cl)c2ccc(C(=O)OC)cc2)CC1`, the Ki in assay [1] was more than 1000 nM; in assay [2], 222 nM. Take `COC(=O)c1ccc(/C(=N/c2ccccc2)N2CCCN(CCc3ccccc3)CC2)cc1`: the Ki in assay [1] worked out at 232 nM; in assay [2] it was 820 nM. Turning to `CCN1CCN(/C(=N\c2ccccc2Cl)c2ccc(C(=O)N(CC)CC)cc2)CC1`, the results for the Ki in assay [1] and in assay [2] were more than 1000 nM and 91.1 nM, respectively.

In the case of `CCN(CC)C(=O)c1ccc(/C(=N/c2ccccc2C(F)(F)F)N2CCN(CCOC)CC2)cc1`, the Ki in assay [1] worked out at 2960 nM; in assay [2], 22.9 nM.

For `CCN(CC)C(=O)c1ccc(/C(=N/c2ccccc2)N2CCN(CCc3cccs3)CC2)cc1`, the Ki was more than 10000 nM in assay [1] and 764 nM in assay [2].

For the compound `CCN(CC)C(=O)c1ccc(/C(=N/c2ccccc2Cl)N2CCN(CCc3cccs3)CC2)cc1`, the Ki in assay [1] is more than 10000 nM; in assay [2] it was 95.3 nM. For the compound `CCCN1CCN(/C(=N\c2cccc(Cl)c2)c2ccc(C(=O)N(CC)CC)cc2)CC1`, the Ki in assay [1] stood at 9530 nM; in assay [2], 177 nM. Consider `CCN1CCN(/C(=N\c2cccc(Cl)c2)c2ccc(C(=O)N(CC)CC)cc2)CC1`, for which the Ki in assay [1] was more than 1000 nM; in assay [2], 63 nM.

As for `CCN1CCN(/C(=N\c2ccccc2F)c2ccc(C(=O)N(CC)CC)cc2)CC1`, the Ki in assay [1] was more than 1000 nM; in assay [2] it was 118 nM. Consider `CCN(CC)C(=O)c1ccc(/C(=N/c2ccc(Cl)cc2)N2CCN(Cc3ccccc3)CC2)cc1`, for which the values for the Ki in assay [1] and in assay [2] were more than 10000 nM and 142 nM, respectively. For the compound `CCN(CC)C(=O)c1ccc(/C(=N/c2ccccc2C(F)(F)F)N2CCN(CCc3ccccc3)CC2)cc1`, the figures for the Ki in assay [1] and in assay [2] were 1000 nM and 545 nM, respectively. With `CCCN(CCC)C(=O)c1ccc(/C(=N/c2ccccc2OC)N2CCN(CC)CC2)cc1`, the Ki stood at 3910 nM in assay [1] and 1020 nM in assay [2]. As to `CCCN(CCC)C(=O)c1ccc(/C(=N/c2ccccc2Cl)N2CCN(CC)CC2)cc1`, the figures for the Ki in assay [1] and in assay [2] were 3930 nM and 292 nM, respectively. As for `C=CCN1CCN(/C(=N\c2ccccc2Cl)c2ccc(C(=O)N(CC)CC)cc2)CC1`, the Ki in assay [1] was found to be 7600 nM; in assay [2], 20.5 nM. Take `CCN(CC)C(=O)c1ccc(/C(=N/c2ccccc2)N2CCN(Cc3ccccc3)CC2)cc1`: the Ki in assay [1] was more than 10000 nM; in assay [2], 212 nM. Take `CCN(CC)C(=O)c1ccc(/C(=N/c2ccccc2Cl)N2CCCN(CCc3ccccc3)CC2)cc1`: the Ki in assay [1] was 618 nM; in assay [2], 29.6 nM. As for `CCN1CCN(/C(=N\c2ccccc2)c2ccc(C(=O)N(CC)CC)cc2)CC1`, the Ki in assay [1] stood at 1000 nM; in assay [2], 16 nM. As to `CCN1CCN(/C(=N\c2cc(Cl)cc(Cl)c2)c2ccc(C(=O)N(CC)CC)cc2)CC1`, the figures for the Ki in assay [1] and in assay [2] were more than 1000 nM and 277 nM, respectively.

With `CCN1CCN(/C(=N\c2cccc(F)c2)c2ccc(C(=O)N(CC)CC)cc2)CC1`, the Ki was more than 10000 nM in assay [1] and 58.5 nM in assay [2]. Consider `CCN(CC)C(=O)c1ccc(/C(=N/c2ccccc2)N2CCCN(CCc3ccccc3)CC2)cc1`, for which the figures for the Ki in assay [1] and in assay [2] were 396 nM and 543 nM, respectively.

In turn, `C=CCN1C[C@H](C)N(/C(=N\c2ccccc2)c2ccc(C(=O)N(CC)CC)cc2)C[C@H]1C` displayed a Ki in assay [2] of 170 nM. Consider `C=CCN1C[C@H](C)N(/C(=N\c2ccccc2)c2ccc(C(=O)OC)cc2)C[C@H]1C`, for which, in assay [2], the inhibitory constant (Ki) stood at 405 nM. Turning to `C=CCN1CCN(/C(=N\c2cccc(Cl)c2)c2ccc(C(=O)N(CC)CC)cc2)CC1`, the inhibition constant Ki was more than 10000 nM in assay [1] and 157 nM in assay [2]. Consider `CCCN1CCN(/C(=N\c2ccccc2Cl)c2ccc(C(=O)OC)cc2)CC1`, for which the Ki was determined as 2070 nM in assay [1] and 87.3 nM in assay [2].

For orientation: Ki means the dissociation constant of the complex between target and ligand, obtained from inhibition or displacement.
